For series [1] the following is noted: commercially-available supplements containing UA; cited from earlier work.
The test system of another series is APTK-induced tumors. The series is described as follows: subcutaneous APTK tumors in Pink1-/- mice, UA diet. In kind it is in vivo. The text has this:
UA activates mitophagy in myocytes and hippocampal neurons via a Pink1/Parkin mediated stress-response (D'Amico et al., 2021). […] Moreover, UA stabilized Parkin protein expression (FIG. 4G). To functionally confirm the dependence of UA induced TSCM formation on Pink1/Parkin mediated mitophagy, the inventors activated Pink1^−/− T cells in the presence or absence of UA. Loss of Pink1 prevented the UA-induced lysosome formation as well as the decrease in mitochondrial content (FIG. 4H, I).
Tumors were minced and digested with Tumor & Tissue Dissociation Reagent (BD Horizon) for 30 min. The remaining organ pieces were filtered through a 70 μm cell strainer. Cells were then washed with PBS 1% BSA and 2 mM EDTA. Immune cells were enriched on a 30%/40%/75% Percoll gradient after a 1700 rpm 17 min centrifugation. Then, tumor immune filtrates or activated T cells were stained with Fixable Viability Dye-eF780 (65-0865-14; eBioscience), αCD45-FITC (30-F11; 11-0451-85; eBioscience), αCD11b-BV650 (M1/70; 56340; BD) α-CD11C-BV785 (HL3; 563735; BD), αLy6G-BV605 (53-6.7; 563005; BD), αLy6C-AF700 (HK1.4; 128024; Biolegend), αF4/80-PE (BM8; 12-4801-82, eBioscience), αPD-L1-PECy7 (MIH5; 25-5982-80, eBioscience); or with Fixable Viability Dye-eF780 (ebioscience), αCD45-BV786 (30-F11; 564225; BD), αCD4-BUV496 (GK1.5; 564667; BD), αCD8-BV605 (100744; Biolegend), αPD1-APC (J43; 17-9985-82; eBioscience), αTIM-3-PECy7 (RMT3-23; 119715; Biolegend), αCTLA4-PE (UC10-4B9; 106305; Biolegend) and αLag3-BV421 (C9B7W; 125221, Biolegend); or with Fixable Viability Dye-eF780 (eBioscience), αCD4-FITC (H129.19; 553650; BD), αCD8-APC (53-6.7; 17-0081-83; eBioscience), αCD44-AF400 (IM7; 103026; Biolegend), αCD62L-BV785 (MEL-14; 104440; Biolegend), αSca-1-PerCP-Cy5.5 (D7; 45-5981-82; eBioscience), αCD95-PE (Jo2; 554258; BD); or with Fixable Viability Dye-eF780 (eBioscience), αCD8-BV650 (53-6.7; 563234; BD), αCD4-BUV496 (GK1.5; 564667; BD), αCD127-APC (A7R34; 17-1271-82; eBioscience), αCD95-FITC (SA367H8; 152605; Biolegend), αCD44-AF400 (IM7; 103026; Biolegend), αCD62L-BV785 (MEL-14; 104440; Biolegend), αSca-1-PerCP-Cy5.5 (D7; 45-5981-82; eBioscience) followed by intracellular staining of αTCF1-PE (S33-966; 564217; BD), or PGC-1α (sc-518025; D-5; santa cruz), or αCyclinD1 (MA5-28534, DCS-6; Invitrogen) with transcription factor buffer set kit (BD Biosciences). To study cytokine expression, tumor immune infiltrates were stimulated ex vivo with 20 ng/ml PMA and 1 μg/ml Ionomycin (Sigma) for 3 h in T cell activation medium with Brefeldin A (Biolegend). For T cell in vitro activation experiments over several days, Brefeldin A was added to the medium for the last 3 hours.

For `O=c1oc2cc(O)ccc2c2ccc(O)cc12` [UA, Urolithin A], in series [1], the “bioavailability profile in humans” value was “favorable bioavailability profile” and the safety in humans result is reported as “deemed safe”. Further, the “tumor growth (tumor suppressive effect of UA)” value with APTK-induced tumors (Pink1 deletion, UA-containing vs control diet) is listed as “abrogated the tumor suppressive effect of UA”. For the same molecule, in the series with APTK-induced tumors (UA vs control diet), the “TCF-1 expression in CD8+ TIL” value is listed as “did not exhibit differences” and the “exhaustion markers in CD8+ TIL” value is reported as “did not exhibit differences”. Moreover, the “ex vivo cytokine release of CD8+ TIL” value in the series with APTK-induced tumors (UA vs control diet, PMA/Ionomycin) was “did not exhibit differences”.

These data come from patent publication US20260069693A1, “UROLITHINS AND T-CELL MEDIATED IMMUNE RESPONSE” (priority 2022, published 2026).
